{"source": "patent US11371097B2", "about": "“Articles for diagnosis of liver fibrosis” (THE GOVERNMENT OF THE UNITED STATES, as represented by THE …, priority 2015, dated 2022)", "key": {"[1]": {"tested_on": "tissue, plasma, or serum protein abundance", "assay": "Global semiquantitative proteomics (iTRAQ mass spectrometry) of tissue, plasma, serum", "type": "in vivo, Rattus norvegicus", "settings": "for Differentially expressed proteins: global proteomics", "description": "Global semiquantitative proteomics analysis (iTRAQ analysis) identified protein products of a subset of the 24 genes differentially expressed in liver tissue specific for the fibrosis phenotype (Table 6). Six protein products were identified in plasma, four in the serum, and two in the liver tissue (Table 6). All protein products were identified in the contrast analysis as specific for the fibrosis phenotype. The direction of the changes in protein products matched the transcriptomics data with the exception of insulin-like growth factor binding protein complex acid labile subunit precursor. […] (Ippolito D L, et. al. Gene expression patterns associated with histopathology in toxic liver fibrosis. Tox Sci. 2015 Sep. 22. pii: kfv214)\n(§1) Serum miRNA expression was measured by next-generation sequencing. Gene expression in the liver was determined by microarray, and global serum and liver protein expression was determined by semi-quantitative mass spectrometry. […] Transcriptomic analysis identified 506 differentially expressed genes in the liver. 13 miRNAs were predicted to target 100 unique differentially expressed genes in the liver. Global proteomics analysis identified 131 differentially expressed proteins in the liver and 53 in the serum. Of these, 7 miRNAs targeted 13 unique genes coding for differentially expressed liver tissue proteins and 3 miRNAs targeted 3 unique genes coding for serum proteins. These 16 differentially expressed miRNAs in the serum are predicted to target and potentially regulate gene expression contributing to the progression of toxic liver injury. (Fermenter M G et al. Serum miRNA as prognostic indicators of toxic liver injury. Submitted abstract in October 2015 for presentation at the Society of Toxicology in March 2016 (New Orleans, La.))."}, "[2]": {"tested_on": "67 genes on the fibrosis gene panel", "assay": "Multiplexed fibrosis gene panel (QuantiGene 2.0 Plex / Bioplex) on liver RNA", "quoted_text": "mRNA is isolated and purified from lysed tissue biopsy specimens. The target mRNA is incubated with beads conjugated to capture probes (each probe is an oligonucleotides specific for one of the genes in the panel). The target is hybridized to the probe by a capture extender-capture probe interaction. Specific mRNA targets hybridize overnight to the respective beads. The signal is amplified by incubating mRNA-capture probe pairs by affixing an amplifier affixed to a biotinylated label probe. Streptavidin-conjugated phycoerythrin (SAPE) is bound to the biotinylated probe to amplify the signal. The signal is detected and quantified by Bioplex suspension array instrumentation, which measures the SAPE fluorescence signal proportional to the amount of mRNA transcripts captured by the bead.\nCandidate genes identified by co-expression modules and pathway/network approaches were fabricated into a custom gene panel using a commercial source (the QuantiGene 2.0 Plex assay, Affymetrix, Santa Clara, Calif.). A total of 71 genes plus 3 housekeeping genes were selected. Using 150 ng RNA input, samples were processed following manufacturer's instructions for purified RNA with use of the HandHeld Magnetic Plate Washer. Plates were read immediately following the final wash using the BioPlex 200 instrument (BioRad, Hercules, Calif.). The following parameters were set on the BioPlex instrument: sample size=100 μL; DD Gate=5,000-25,000; Timeout=45 sec; Bead Event/Bead Region=100.\nFor each sample, the average signal intensity was determined as recommended by the manufacturer. Duplicates were averaged. The average background signal for each gene was subtracted. Assay limit of detection was determined by adding three standard deviations of assay background signals to the average intensity of the background control wells. All intensities lower than the limit of detection for each probe was set to one unit above the probe's limit of detection. Probes with all intensities below the assay limit of detection were removed from the final analysis. The test gene signal was divided by the average intensities of the three normalization genes (Gapdh, Hprt1, Ppib). For each test gene, the fold change was calculated by dividing the normalized value for the treated samples by the normalized value of the vehicle-treated controls. Fold changes were plotted as log2 fold change. Gene expression data were imported into Partek Genomics Suite 6.0 (Partek, Inc., St. Louis, Mo.). Principal component analysis was used for multivariate interpretation to determine sources of variation across sample groups (Joliffe I T, Morgan B J. Principal component analysis and exploratory factor analysis. Statistical methods in medical research 1992; 1(1):69-95). Differentially expressed genes were determined by analysis of variance (ANOVA) with contrasts, setting the ANOVA factors as toxicant and the histopathological endpoint of fibrosis (any score >0). ANOVA variables were fibrosis score 0 (none) vs. score of >0 (minimal, mild, moderate, and marked). For hierarchical biclustering, differentially expressed genes were standardized by setting the genes expressed to a mean of zero and scaling to a standard deviation of one. Euclidean geometry was used to cluster row and column dissimilarity using a method of average linkage.\nChemical-dose groups were down-selected based on histopathology to conform to the 96-well assay format of the multiplexed panel of presumptive fibrosis genes. Three of the four dose groups were evaluated for the fibrogenic chemicals allyl alcohol and 4,4′-methylenedianiline. A single dose was selected with group-matched vehicle controls for each of the remaining chemicals. […] The highest dose of bromobenzene was selected because the vacuolation pathology was only observed at this dose.\nIsolated liver RNA was incubated with microbead-bound capture probes specific for the 71 presumptive fibrogenic genes and three housekeeping normalization genes."}, "[3]": {"tested_on": "serum miRNA", "assay": "Serum miRNA expression by next-generation sequencing", "type": "in vivo, rats", "settings": "FDR<0.05", "procedure": "as §1"}, "[4]": {"tested_on": "Timp1", "assay": "qPCR of liver RNA: Timp1", "type": "in vivo, Male Sprague-Dawley rats", "settings": "across dose groups, vs control", "procedure": "Working on dry ice, a portion (−10 mg) of flash-frozen liver was cut from each sample and transferred to a clean, labeled tube. Total RNA was then isolated using Qiagen's miRNeasy 96 kit (Qiagen, Valencia, Calif.) following manufacturer's instructions with a final elution volume of −150 μL (2×75 μL). The quality and quantity of RNA samples were evaluated with a 2100 Bioanalyzer (Agilent Technologies, Santa Clara, Calif.), using the Agilent RNA 6000 Nano Reagents and a multiwell NanoDrop 8000 spectrophotometer (Thermo Fisher Scientific, Waltham, Mass.).\nUsing 1 μg RNA input, cDNA was generated using a QuantiTect Reverse Transcription kit (Qiagen, Valencia, Calif.) following manufacturer's instructions. Applied Biosystems SYBR Green Master Mix was used in a 20 μL qPCR reaction with 2 μL of cDNA template and a 2.tM final concentration of each primer. A total of five genes were targeted (Gapdh, Actb, Timp1, Tgfbl, and Psma5), two of which served as the endogenous controls (Gapdh and Actb). An Applied Biosystems 7500 Real-Time PCR System (Applied Biosystems, Foster City, Calif.) was used for thermal cycling and fluorescence detection using the default settings for Quantitation-Comparative CT with SYBR® . . . Green Reagents which uses the following scheme: 95° C. for 10 minutes followed by 40 cycles of: 95° C. for 15 seconds, 60° C. for 1 minute, and a fluorescence signal read. […]"}, "[5]": {"settings": "plasma, 4,4′-methylenedianiline/vehicle, Group 2"}, "[6]": {"settings": "serum, 4,4′-methylenedianiline/vehicle, Group 2"}, "[7]": {"settings": "tissue, 4,4′-methylenedianiline/vehicle, Group 2"}, "[8]": {"settings": "4,4′-MDA 59.7 mg/kg, animals 93-96"}}, "note": "“And” between values parts separate entries of the source, which are not always exact repeats. Equal values may be shown once. “Also recorded” adds a separate entry of the source.", "data": [{"smiles": "Nc1ccc(Cc2ccc(N)cc2)cc1", "note": "[4,4′-methylenedianiline]", "values": [{"measurement": "Differentially expressed proteins", "setting": "[1]; liver", "value": 131}, {"measurement": "Fold change alpha-2-macroglobulin precursor", "setting": "[1]; [5]", "value": 2.2, "unit": "Fold change"}, {"measurement": "Fold change ceruloplasmin isoform 1 precursor", "setting": "[1]; [5]", "value": 2.5, "unit": "Fold change"}, {"measurement": "Fold change fibronectin precursor", "setting": "[1]; [5]", "value": "−1.3", "unit": "Fold change"}, {"measurement": "Fold change insulin-like growth factor-binding protein complex acid labile subunit precursor", "setting": "[1]; [5]", "value": "−1.4", "unit": "Fold change"}, {"measurement": "Fold change vitronectin precursor", "setting": "[1]; [5]", "value": "−1.6", "unit": "Fold change"}, {"measurement": "Differentially expressed proteins", "setting": "[1]; serum", "value": 53}, {"measurement": "Fold change alpha-2-macroglobulin precursor", "setting": "[1]; [6]", "value": 2.4, "unit": "Fold change"}, {"measurement": "Fold change ceruloplasmin isoform 1 precursor", "setting": "[1]; [6]", "value": 2.4, "unit": "Fold change"}, {"measurement": "Fold change complement C1q subcomponent subunit B precursor", "setting": "[1]; [6]", "value": 1.6, "unit": "Fold change"}, {"measurement": "Fold change vitronectin precursor", "setting": "[1]; [6]", "value": "−1.1", "unit": "Fold change"}, {"measurement": "Fold change ceruloplasmin isoform 1 precursor", "setting": "[1]; [7]", "value": 3.0, "unit": "Fold change"}, {"measurement": "Fold change fibronectin precursor", "setting": "[1]; [7]", "value": 1.4, "unit": "Fold change"}, {"measurement": "Anxa2 differential expression", "setting": "[2]; [8]", "value": "2.439 and 1.755 and 2.514"}, {"measurement": "Arpc1b differential expression", "setting": "[2]; [8]", "value": "1.147 and 1.069 and 1.373"}, {"measurement": "C1qb differential expression", "setting": "[2]; [8]", "value": "0.893 and 0.937 and 1.469"}, {"measurement": "CD53 differential expression", "setting": "[2]; [8]", "value": "0.950 and 1.045 and 1.560"}, {"measurement": "Capg differential expression", "setting": "[2]; [8]", "value": "1.169 and 1.723 and 2.026"}, {"measurement": "Ccl2 differential expression", "setting": "[2]; [8]", "value": "1.483 and 1.928 and 1.705"}, {"measurement": "Ctgf differential expression", "setting": "[2]; [8]", "value": "1.026 and 0.691 and 1.013"}, {"measurement": "Cxcl16 differential expression", "setting": "[2]; [8]", "value": "1.969 and 1.196 and 2.174"}, {"measurement": "Cyba differential expression", "setting": "[2]; [8]", "value": "1.216 and 1.165 and 2.041"}, {"measurement": "Dsc2 differential expression", "setting": "[2]; [8]", "value": "0.258 and 0.244 and 0.474"}, {"measurement": "Fam102b differential expression", "setting": "[2]; [8]", "value": "0.577 and 0.939 and 0.845"}, {"measurement": "Fam105a differential expression", "setting": "[2]; [8]", "value": "1.236 and 1.186 and 1.900"}, {"measurement": "Fxyd5 differential expression", "setting": "[2]; [8]", "value": "1.025 and 0.916 and 1.613"}, {"measurement": "Gpnmb differential expression", "setting": "[2]; [8]", "value": "1.876 and 1.911 and 3.162"}, {"measurement": "Itga1 differential expression", "setting": "[2]; [8]", "value": "1.064 and 1.196 and 1.743"}, {"measurement": "Itgb2 differential expression", "setting": "[2]; [8]", "value": "0.709 and 1.138 and 1.216"}, {"measurement": "Lame2 differential expression", "setting": "[2]; [8]", "value": "1.485 and 0.755 and 1.416"}, {"measurement": "Lbp differential expression", "setting": "[2]; [8]", "value": "2.023 and 1.422 and 2.026"}, {"measurement": "Lgals3 differential expression", "setting": "[2]; [8]", "value": "1.931 and 2.085 and 2.575"}, {"measurement": "Pkm2 differential expression", "setting": "[2]; [8]", "value": "1.314 and 1.491 and 2.389"}, {"measurement": "Plau differential expression", "setting": "[2]; [8]", "value": "0.941 and 0.957 and 1.332"}, {"measurement": "RT1-DMa differential expression", "setting": "[2]; [8]", "value": "1.381 and 2.022 and 2.522 and 1.938"}, {"measurement": "RT1-Da differential expression", "setting": "[2]; [8]", "value": "1.431 and 2.375 and 2.640"}, {"measurement": "Serpine1 differential expression", "setting": "[2]; [8]", "value": "1.151 and 1.305 and 1.475"}, {"measurement": "TagIn2 differential expression", "setting": "[2]; [8]", "value": "1.404 and 1.169 and 1.971"}, {"measurement": "Timp1 differential expression", "setting": "[2]; [8]", "value": "1.871 and 1.153 and 2.099"}, {"measurement": "RT1-DMa differential expression", "setting": "[2]; 4,4′-MDA 162 mg/kg, animals 97-100", "value": "1.970 and 1.713 and 2.157 and 1.814"}, {"measurement": "Hierarchical biclustering of log2 fold-changes in panel gene expression", "setting": "[2]; liver, 67 genes", "value": "clustered together"}, {"measurement": "Differentially expressed miRNA", "setting": "[3]", "value": 16}, {"measurement": "Downregulated miRNA", "setting": "[3]", "value": 4}, {"measurement": "Upregulated miRNA", "setting": "[3]", "value": 12}, {"measurement": "Timp1 gene expression by qPCR", "setting": "[4]", "value": "showed a dose-dependent increase; also recorded: dose-dependent increases in gene expression"}]}]}
